Laboratory results reported in patent US6444613B1, “Defoliant” (Hoechst Schering AgrEvo GmbH, priority 1999, dated 2002).

System: cotton plants
Assay: Action as defoliant: leaf abscission of cotton plants after spray application
Assay type: in vivo

With `CCOC(=O)C(Cl)Cc1cc(-n2nc(C)n(C(F)F)c2=O)c(F)cc1Cl` (centres unmarked) [Carfentrazone-ethyl, carfentrazone-ethyl] the “Effect in % (leaf abscission)” value (Table 3.1 carfentrazone-ethyl trial, dose 25 g/ha, 10 days) was 0%, the “Effect in % (leaf abscission)” value (Table 3.1 carfentrazone-ethyl trial, dose 25 g/ha, 20 days) was 5% and the “Effect in % (leaf abscission)” value (Table 3.2 carfentrazone-ethyl trial, dose 1.5 g/ha, 6 days) was 29%. The “Effect in % (leaf abscission)” value (Table 3.2 carfentrazone-ethyl trial, dose 1.5 g/ha, 9 days) was 29%.

For `COC(=O)CSc1cc(/N=c2\sc(=O)n3n2CCCC3)c(F)cc1Cl` [Fluthiacet-methyl, fluthiacet-methyl], the “Effect in % (leaf abscission)” value (Table 1 fluthiacet-methyl trial, dose 0.,5 g/ha, 4 days) was 5%, the “Effect in % (leaf abscission)” value (Table 1 fluthiacet-methyl trial, dose 0.,5 g/ha, 5 days) was 14% and the “Effect in % (leaf abscission)” value (Table 1 fluthiacet-methyl trial, dose 0.25 g/ha, 4 days) was 0%. For the same compound, the “Effect in % (leaf abscission)” value (Table 1 fluthiacet-methyl trial, dose 0.25 g/ha, 5 days) was 0%.

For `O=C(Nc1ccccc1)Nc1cnns1` [Thidiazuron, thidiazuron], the “Effect in % (leaf abscission)” value (Table 1 fluthiacet-methyl trial, dose 25 g/ha, 4 days, cotton 8-10 leaf stage) was 5%, the “Effect in % (leaf abscission)” value (Table 1 fluthiacet-methyl trial, dose 25 g/ha, 5 days, cotton 8-10 leaf stage) was 24% and the “Effect in % (leaf abscission)” value (Table 2 pyraflufen-ethyl trial, dose 25 g/ha, 3 days) was 4%. For the same compound, the “Effect in % (leaf abscission)” value (Table 2 pyraflufen-ethyl trial, dose 25 g/ha, 5 days) was 17%, the “Effect in % (leaf abscission)” value (Table 3.1 carfentrazone-ethyl trial, dose 80 g/ha, 10 days) was 0% and the “Effect in % (leaf abscission)” value (Table 3.1 carfentrazone-ethyl trial, dose 80 g/ha, 20 days) was 8%. The “Effect in % (leaf abscission)” value (Table 3.2 carfentrazone-ethyl trial, dose 25 g/ha, 6 days) was 29% and the “Effect in % (leaf abscission)” value (Table 3.2 carfentrazone-ethyl trial, dose 25 g/ha, 9 days) was 52%.

For pyraflufen-ethyl, the “Effect in % (leaf abscission)” value (Table 2 pyraflufen-ethyl trial, dose 1 g/ha, 3 days) was 0%, the “Effect in % (leaf abscission)” value (Table 2 pyraflufen-ethyl trial, dose 1 g/ha, 5 days) was 0% and the “Effect in % (leaf abscission)” value (Table 2 pyraflufen-ethyl trial, dose 2 g/ha, 3 days) was 0%. The “Effect in % (leaf abscission)” value (Table 2 pyraflufen-ethyl trial, dose 2 g/ha, 5 days) was 0%.
